Data taken from patent US20190029257A1, “APPLICATION FOR HERBICIDE-TOLERANT PROTEIN” (BEIJING DABEINONG TECHNOLOGY GROUP CO., LTD., priority 2016, published 2019).

Columns and labels:
Format in all cases: in vivo
[1] = tested on: Zm chloroplastic ALT-1-02 maize plants; assay: Halosulfuron-methyl tolerance of maize plants (damage degree); conditions: 36 g ai/ha (4x Hal.); for Average damage % 3 DAT: 3 days after spraying; for Average damage % 7 DAT: 7 days after spraying; for Average damage % 14 DAT: 14 days after spraying; for Average damage % 21 DAT: 21 days after spraying
Text: (§1) The herbicide tolerance effects of Zm cytoplasmic ALT-1-02 maize plants, Zm chloroplastic ALT-1-02 maize plants, Zm cytoplasmic ALT-2-02 maize plants, Zm chloroplastic ALT-2-02 maize plants, Zm cytoplasmic ALT-3-02 maize plants, Zm chloroplastic ALT-3-02 maize plants and wild-type maize plants on halosulfuron-methyl were detected (at V3-V4 stage), respectively.
(§2) Zm cytoplasmic ALT-1-02 maize plants, Zm chloroplastic ALT-1-02 maize plants, Zm cytoplasmic ALT-2-02 maize plants, Zm chloroplastic ALT-2-02 maize plants, Zm cytoplasmic ALT-3-02 maize plants, Zm chloroplastic ALT-3-02 maize plants and wild-type maize plants were respectively taken and sprayed with halosulfuron-methyl (36 g ai/ha, 4-fold field concentration) and a blank solvent (water). The damage degree caused by the herbicide was measured for each plant according to the plant growth status 3 days after spraying (3 DAT), 7 days after spraying (7 DAT), 14 days after spraying (14 DAT) and 21 days after spraying (21 DAT), respectively: considering a growth status equivalent to that of the untreated plants as having a damage degree of 0%; considering conditions of leaves being partially chlorotic and yellow but substantially not affecting the plant normal growth as having a damage degree of 50%; and considering the whole plant being purple and dying as having a damage degree of 100%. There were 2 strains in Zm cytoplasmic ALT-1-02 maize plants in total (S13 and S14), 2 strains in Zm chloroplastic ALT-1-02 maize plants in total (S15 and S16), 2 strains in Zm cytoplasmic ALT-2-02 maize plants in total (S17 and S18), 2 strains in Zm chloroplastic ALT-2-02 maize plants in total (S19 and S20), 2 strains in Zm cytoplasmic ALT-3-02 maize plants in total (S21 and S22), 2 strains in Zm chloroplastic ALT-3-02 maize plants in total (S23 and S24), and 1 strain in wild- type maize plants (CK2) in total; and 10-15 plants were selected from each strain and tested.

[2] = tested on: Zm cytoplasmic ALT-3-02 maize plants; assay: as above; conditions: 36 g ai/ha (4x Hal.); for Average damage % 3 DAT: 3 days after spraying; for Average damage % 7 DAT: 7 days after spraying; for Average damage % 14 DAT: 14 days after spraying; for Average damage % 21 DAT: 21 days after spraying
Text: as §1, §2

[3] = tested on: Zm cytoplasmic ALT-1-02 maize plants; assay: as above; conditions: 36 g ai/ha (4x Hal.); for Average damage % 3 DAT: 3 days after spraying; for Average damage % 7 DAT: 7 days after spraying; for Average damage % 14 DAT: 14 days after spraying; for Average damage % 21 DAT: 21 days after spraying
Text: as §1, §2

[4] = tested on: Zm cytoplasmic ALT-2-02 maize plants; assay: as above; conditions: 36 g ai/ha (4x Hal.); for Average damage % 3 DAT: 3 days after spraying; for Average damage % 7 DAT: 7 days after spraying; for Average damage % 14 DAT: 14 days after spraying; for Average damage % 21 DAT: 21 days after spraying
Text: as §1, §2

[5] = tested on: At chloroplastic ALT-3-01 T1 plants; assay: Herbicide tolerance of Arabidopsis thaliana T1 plants (spray, resistance classes counted); conditions: 18 g ai/ha (1x Hal.); number of plants 14 days after spraying; Total 30
Text: T1 transformants were initially selected from the background of untransformed seeds using a glufosinate selection scheme. About 40000 T1 seeds were screened, and 380 T1 positive transformants (PAT gene) were identified with a transformation efficiency of about 0.95%. The plants that were transformed with the recombinant expression vector DBN100632 were Arabidopsis thaliana plants having an ALT-1-01 nucleotide sequence located in the cytoplasm introduced (At cytoplasmic ALT-1-01), and the plants that were transformed with the recombinant expression vector DBN100631 were Arabidopsis thaliana plants having an ALT-1-01 nucleotide sequence located in the chloroplast introduced (At chloroplastic ALT-1-01); the plants that were transformed with the recombinant expression vector DBN100634 were Arabidopsis thaliana plants having an ALT-2-01 nucleotide sequence located in the cytoplasm introduced (At cytoplasmic ALT-2-01), and the plants that were transformed with the recombinant expression vector DBN100633 were Arabidopsis thaliana plants having an ALT-2-01 nucleotide sequence located in the chloroplast introduced (At chloroplastic ALT-2-01); and the plants that were transformed with the recombinant expression vector DBN100636 were Arabidopsis thaliana plants having an ALT-3-01 nucleotide sequence located in the cytoplasm introduced (At cytoplasmic ALT-3-01), and the plants that were transformed with the recombinant expression vector DBN100635 were Arabidopsis thaliana plants having an ALT-3-01 nucleotide sequence located in the chloroplast introduced (At chloroplastic ALT-3-01). The herbicide tolerance effects of At cytoplasmic ALT-1-01 T1 plants, At chloroplastic ALT-1-01 T1 plants, At cytoplasmic ALT-2-01 T1 plants, At chloroplastic ALT-2-01 T1 plants, At cytoplasmic ALT-3-01 T1 plants, At chloroplastic ALT-3-01 T1 plants and wild-type Arabidopsis thaliana plants on halosulfuron-methyl were detected (14 days after sowing), respectively.
(§3) […] Plants were counted for the resistance situations 14 days after spraying: those having a consistent growth status with the blank solvent (water) group after 14 days were classified as highly resistant plants, those having a bolting height less than ½ of that of the blank solvent (water) group after 14 days were classified as moderately resistant plants, those still not capable of bolting after 14 days were classified as poorly resistant plants, and those dead after 14 days were classified as non-resistant plants. Since each Arabidopsis thaliana T1 plant was an independent transformation event, a significant difference in individual T1 responses could be expected at a given dose.
as §3, with “situation” for “situations”

With `COC(=O)c1c(Cl)nn(C)c1S(=O)(=O)NC(=O)Nc1nc(OC)cc(OC)n1` [halosulfuron-methyl, 3-chlorine-5-(4,6-dimethoxypyrimidine-2-aminocarbonylaminosulphonyl)-1-methylpyrazole-4-carboxylic acid methyl ester] the “Average damage % 3 DAT” value ([1]; strain S15) was 0%, the “Average damage % 7 DAT” value ([1]; strain S15) was 0% and the “Average damage % 14 DAT” value ([1]; strain S15) was 0%. The “Average damage % 21 DAT” value ([1]; strain S15) was 0%, the “Average damage % 3 DAT” value ([1]; strain S16) was 0% and the “Average damage % 7 DAT” value ([1]; strain S16) was 0%. For the same molecule, the “Average damage % 14 DAT” value ([1]; strain S16) was 0%, the “Average damage % 21 DAT” value ([1]; strain S16) was 0% and the “Average damage % 3 DAT” value ([2]; strain S21) was 0%. For the same molecule, the “Average damage % 7 DAT” value ([2]; strain S21) was 4%, the “Average damage % 14 DAT” value ([2]; strain S21) was 0% and the “Average damage % 21 DAT” value ([2]; strain S21) was 0%. The “Average damage % 3 DAT” value ([2]; strain S22) was 0%, the “Average damage % 7 DAT” value ([2]; strain S22) was 5% and the “Average damage % 14 DAT” value ([2]; strain S22) was 0%. The “Average damage % 21 DAT” value ([2]; strain S22) was 0%, the “Average damage % 3 DAT” value ([3]; strain S13) was 0% and the “Average damage % 7 DAT” value ([3]; strain S13) was 2%. The “Average damage % 14 DAT” value ([3]; strain S13) was 0%, the “Average damage % 21 DAT” value ([3]; strain S13) was 0% and the “Average damage % 3 DAT” value ([3]; strain S14) was 0%. For the same molecule, the “Average damage % 7 DAT” value ([3]; strain S14) was 3%, the “Average damage % 14 DAT” value ([3]; strain S14) was 0% and the “Average damage % 21 DAT” value ([3]; strain S14) was 0%. The “Average damage % 3 DAT” value ([4]; strain S17) was 0%, the “Average damage % 7 DAT” value ([4]; strain S17) was 3% and the “Average damage % 14 DAT” value ([4]; strain S17) was 0%. The “Average damage % 21 DAT” value ([4]; strain S17) was 0%, the “Average damage % 3 DAT” value ([4]; strain S18) was 0% and the “Average damage % 7 DAT” value ([4]; strain S18) was 2%. For the same molecule, the “Average damage % 14 DAT” value ([4]; strain S18) was 0%, the “Average damage % 21 DAT” value ([4]; strain S18) was 0% and the Highly resistant [5] was 1. For the same molecule, the Moderately resistant [5] was 6, the Non-resistant [5] was 5 and the Poorly resistant [5] was 5.
